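Exposure lasted 48 hours, with cells grown in 96-well plates and compounds tested at five concentrations. GI50: concentration for 50% inhibition of growth.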 The source made the active and inactive calls. Cut-off read from the data, not from the text of the source: active = GI50 up to about 1.1 µM and inactive = higher.
How the values were obtained:
Assay in all cases: inhibition of tumour cell growth, NCI panel, 48 h
A498 = system: A498
ACHN = system: ACHN
COLO 205 = system: COLO 205
EKVX = system: EKVX
HCT-15 = system: HCT-15
HOP-62 = system: HOP-62
HT-29 = system: HT-29
K562 = system: K562
KM12 = system: KM12
NCI-H23 = system: NCI-H23
NCI-H460 = system: NCI-H460
OVCAR-8 = system: OVCAR-8
RPMI-8226 = system: RPMI-8226
SF-268 = system: SF-268
SF-295 = system: SF-295
SK-MEL-28 = system: SK-MEL-28
SK-MEL-2 = system: SK-MEL-2
SNB-75 = system: SNB-75
U-251 = system: U-251
MDA-MB-231 = system: MDA-MB-231

SMILES	GI50 (A498)	GI50 (ACHN)	GI50 (COLO 205)	GI50 (EKVX)	GI50 (HCT-15) [µM]	GI50 (HOP-62)	GI50 (HT-29)	GI50 (K562)	GI50 (KM12)	GI50 (NCI-H23)	GI50 (NCI-H460)	GI50 (OVCAR-8)	GI50 (RPMI-8226)	GI50 (SF-268)	GI50 (SF-295)	GI50 (SK-MEL-28)	GI50 (SK-MEL-2)	GI50 (SNB-75)	GI50 (U-251)	GI50 (MDA-MB-231)
[O-][S+]1c2ccccc2N=C(c2ccc3ccccc3c2)CC1c1ccccc1 (centres undefined)	17.4 µM (inactive)	16.4 µM (inactive)	19.1 µM (inactive)	25.1 µM (inactive)	16.4	29.3 µM (inactive)	17.4 µM (inactive)	23.7 µM (inactive)	13.9 µM (inactive)	17.9 µM (inactive)	19.7 µM (inactive)	16.4 µM (inactive)	29.6 µM (inactive)	18.2 µM (inactive)	19.9 µM (inactive)	43 µM (inactive)	30.8 µM (inactive)	17.1 µM (inactive)	18.6 µM (inactive)	
Cc1ccc2nc3c(C(=O)NCCN(C)C)cccc3cc2c1	1.56 µM (inactive)		1.02 µM (active)	0.802 µM (active)	0.834	2.85 µM (inactive)	1.14 µM (inactive)	2.36 µM (inactive)	2.9 µM (inactive)	1.84 µM (inactive)	0.438 µM (active)	1.5 µM (inactive)	1.58 µM (inactive)	1.26 µM (inactive)	1.95 µM (inactive)	2.51 µM (inactive)	2.36 µM (inactive)	2.99 µM (inactive)	3.26 µM (inactive)	
O=C1CCC(=O)C12CCc1cccc(O)c12		> 100 µM (inactive)	> 100 µM (inactive)	> 100 µM (inactive)	> 100	> 100 µM (inactive)	> 100 µM (inactive)	> 100 µM (inactive)		> 100 µM (inactive)	> 100 µM (inactive)	> 100 µM (inactive)	> 100 µM (inactive)	> 100 µM (inactive)	> 100 µM (inactive)	> 100 µM (inactive)		39 µM (inactive)	> 100 µM (inactive)	
Cc1cc(=O)oc2cc(OCC(O)COC(C)C)ccc12 (centres undefined)		> 100 µM (inactive)	> 100 µM (inactive)	> 100 µM (inactive)	> 100	> 100 µM (inactive)	> 100 µM (inactive)	> 100 µM (inactive)	> 100 µM (inactive)	> 100 µM (inactive)	> 100 µM (inactive)	> 100 µM (inactive)	> 100 µM (inactive)	> 100 µM (inactive)	> 100 µM (inactive)	> 100 µM (inactive)		> 100 µM (inactive)	> 100 µM (inactive)	> 100 µM (inactive)
CC(=O)O[C@H]1CC[C@H]2[C@@H]3CC[C@H]4Nc5c(cnn5S(C)(=O)=O)C[C@]4(C)[C@H]3CC[C@]12C	> 100 µM (inactive)		> 100 µM (inactive)		> 100	27.6 µM (inactive)	48.5 µM (inactive)	62.7 µM (inactive)	> 100 µM (inactive)	> 100 µM (inactive)	68.2 µM (inactive)	45.4 µM (inactive)	> 100 µM (inactive)		46.8 µM (inactive)	48.2 µM (inactive)	61.7 µM (inactive)	37.2 µM (inactive)	53.1 µM (inactive)	> 100 µM (inactive)
CC12CCC([C@H](Nc3cc(C(F)(F)F)cc(C(F)(F)F)c3)C1=O)C2(C)C (some centres undefined)		> 100 µM (inactive)	> 100 µM (inactive)	> 100 µM (inactive)	> 100	33.7 µM (inactive)	84.3 µM (inactive)	> 100 µM (inactive)	> 100 µM (inactive)	> 100 µM (inactive)		> 100 µM (inactive)	0.158 µM (active)	> 100 µM (inactive)	37.4 µM (inactive)	> 100 µM (inactive)	> 100 µM (inactive)			> 100 µM (inactive)
COC(=O)C(=O)C(C#N)c1cccc(Cl)c1 (centres undefined)	> 100 µM (inactive)	> 100 µM (inactive)	> 100 µM (inactive)	> 100 µM (inactive)	> 100	> 100 µM (inactive)	> 100 µM (inactive)	> 100 µM (inactive)	> 100 µM (inactive)	> 100 µM (inactive)	> 100 µM (inactive)	> 100 µM (inactive)	> 100 µM (inactive)	> 100 µM (inactive)	> 100 µM (inactive)	> 100 µM (inactive)	> 100 µM (inactive)	> 100 µM (inactive)	> 100 µM (inactive)	
O=S1(=O)C[C@@H](NCc2ccccc2)[C@H](NCc2ccccc2)C1		> 100 µM (inactive)	> 100 µM (inactive)	> 100 µM (inactive)		37.4 µM (inactive)	> 100 µM (inactive)	> 100 µM (inactive)	> 100 µM (inactive)	> 100 µM (inactive)	> 100 µM (inactive)	> 100 µM (inactive)	> 100 µM (inactive)	> 100 µM (inactive)	> 100 µM (inactive)	> 100 µM (inactive)	> 100 µM (inactive)	> 100 µM (inactive)	> 100 µM (inactive)	> 100 µM (inactive)
CN1C2CC(=O)CC1[C@H](O)[C@@H]2O			> 100 µM (inactive)	> 100 µM (inactive)	> 100	> 100 µM (inactive)	> 100 µM (inactive)	> 100 µM (inactive)	> 100 µM (inactive)	> 100 µM (inactive)	> 100 µM (inactive)	> 100 µM (inactive)	> 100 µM (inactive)	> 100 µM (inactive)	> 100 µM (inactive)	> 100 µM (inactive)	> 100 µM (inactive)		> 100 µM (inactive)	> 100 µM (inactive)
CCOc1ccc(O)cc1[P+](c1ccccc1)(c1ccccc1)c1ccccc1	11.7 µM (inactive)	16.2 µM (inactive)	2.86 µM (inactive)	11.5 µM (inactive)		8.41 µM (inactive)	2.85 µM (inactive)	1.49 µM (inactive)	1.64 µM (inactive)	1.67 µM (inactive)	3.24 µM (inactive)	3.42 µM (inactive)	3.5 µM (inactive)	5.2 µM (inactive)	4.5 µM (inactive)	4.47 µM (inactive)		4.5 µM (inactive)	2.54 µM (inactive)	
CC/C=C/C(CC)C/C(C)=C\[C@]1(CC)C[C@H](CC)[C@H](CC(=O)O)OO1 (some centres undefined)	1.53 µM (inactive)	0.265 µM (active)	1.32 µM (inactive)		0.416	0.885 µM (active)	0.499 µM (active)	0.355 µM (active)	0.0991 µM (active)	1.61 µM (inactive)	0.171 µM (active)	1.09 µM (active)	< 0.01 µM (active)	1.39 µM (inactive)	0.324 µM (active)		1.74 µM (inactive)		0.491 µM (active)	1.76 µM (inactive)
Cc1nc2c(cc1C(=O)N/N=C/c1ccc([N+](=O)[O-])cc1)c(=O)n(C)c(=O)n2C		> 100 µM (inactive)	> 100 µM (inactive)	91.2 µM (inactive)	> 100	16.5 µM (inactive)	> 100 µM (inactive)	> 100 µM (inactive)	> 100 µM (inactive)	41.8 µM (inactive)	> 100 µM (inactive)	32.4 µM (inactive)	96.6 µM (inactive)	25.4 µM (inactive)	54.1 µM (inactive)	> 100 µM (inactive)	31.8 µM (inactive)	> 100 µM (inactive)	19.2 µM (inactive)	22.1 µM (inactive)
CC1=C(N(C)C)C(=O)c2nc3n(c2C1=O)CCC3OC(N)=O (centres undefined)	13.2 µM (inactive)	16.7 µM (inactive)	18 µM (inactive)	20.5 µM (inactive)	14.5	17.6 µM (inactive)	19.7 µM (inactive)	18.5 µM (inactive)	17.2 µM (inactive)	13.8 µM (inactive)	15.6 µM (inactive)	16.7 µM (inactive)	16.9 µM (inactive)	20.1 µM (inactive)	15.2 µM (inactive)	20.2 µM (inactive)	15.6 µM (inactive)	23.7 µM (inactive)	23.2 µM (inactive)	
CC1OC1C(=O)C1(O)C(C)C(O)C23OC2(C(O)c2c(O)cccc2C3=O)C1O (centres undefined) [CERVICARCIN]	0.352 µM (active)		0.0706 µM (active)	0.0908 µM (active)	0.195	0.0895 µM (active)	0.173 µM (active)	0.175 µM (active)	0.298 µM (active)	0.0938 µM (active)	0.118 µM (active)	0.172 µM (active)	0.0847 µM (active)	0.0984 µM (active)	0.226 µM (active)	0.182 µM (active)	0.142 µM (active)	0.212 µM (active)	0.232 µM (active)	
COc1ccc2c3c1O[C@H]1C[C@@H](O)C=C[C@@]31CCN(C)C2 [GALANTAMINE]	> 150 µM (inactive)		> 150 µM (inactive)	> 150 µM (inactive)	> 150	> 150 µM (inactive)	> 150 µM (inactive)	> 150 µM (inactive)	> 150 µM (inactive)	> 150 µM (inactive)	> 150 µM (inactive)	23.8 µM (inactive)	> 150 µM (inactive)	87.7 µM (inactive)	> 150 µM (inactive)	> 150 µM (inactive)	> 150 µM (inactive)	> 150 µM (inactive)	> 150 µM (inactive)	
O=c1cc[nH]c(=O)[nH]1 [URACIL]	6.82 µM (inactive)		187 µM (inactive)	294 µM (inactive)	798	340 µM (inactive)	509 µM (inactive)	465 µM (inactive)	237 µM (inactive)	147 µM (inactive)	305 µM (inactive)	527 µM (inactive)	> 946 µM (inactive)	578 µM (inactive)	382 µM (inactive)	327 µM (inactive)	393 µM (inactive)	350 µM (inactive)	370 µM (inactive)	
